The source of these data is patent US20250339426A1, “GCN2 MODULATOR FOR TREATING CANCER” (HIBERCELL, INC., priority 2022, published 2025).

Series [1] concerns oxidative phosphorylation pathway in FaDu tumors. As to the kind of experiment: Non-targeted proteomic analysis of FaDu tumors. The format is in vivo, mice. On the procedure: FaDu tumor bearing mice were treated with vehicle or HC-7366 (1, 3, or 30 mg/kg) twice a day orally for three days, and on the morning of Day 4 an AM dose was administered and tumors and plasma were collected 1 hr after dose. Tumor and plasma samples were extracted and split into equal parts for analysis on LC/MS/MS and Polar LC platforms. Proprietary software was used to match ions to an in-house library of standards for metabolite identification and for metabolite quantitation by peak area integration (Metabolon). Proteomic analysis on tumors was performed at MS Bioworks. The equivalent of 3 μg of peptide from each pooled fraction was analyzed by nano LC-MS/MS with a Waters M-Class HPLC system interfaced to a ThermoFisher Fusion Lumos mass spectrometer. Histograms show metabolite levels of treatment groups normalized to vehicle control (FIGS. 115-122).
FaDu tumor bearing mice were treated with HC-7366 at 3 and 30 mg/kg twice a day for four days. Tumors were harvested for non-targeted proteomic analysis.

A short description of series [2]: Tolerability by body weight in tumor-bearing mice. The format is in vivo. Conditions: NCI-H1975 study. On the procedure:
For routine monitoring, all study animals were monitored not only for tumor growth but also behavior such as mobility, food and water consumption (by cage side checking only), body weight (BW), eye/hair matting and any other abnormal effect. Any mortality and/or abnormal clinical signs were recorded. • 2.2.1 Body Weight (BW): Body weights of all animals were measured and recorded three times weekly throughout the study. Body weight change, expressed in %, is calculated using the following formula: […]

In series [3] the test system is KG-1 (human AML cancer cells). As to the kind of experiment: In vivo tumor growth inhibition, KG-1 xenograft. Also on record: species or system NOD SCID mice. The settings on record: 1 and 3 mg/kg twice daily oral. On the procedure:
KG-1 (human AML cancer cells): Female 6-8 weeks old NOD SCID mice were inoculated subcutaneously on the right flank with KG1 tumor cells (5×10^6) in RPMI 1640 without serum for tumor development. The treatments were started when the mean tumor size reached approximately 194 mm^3 at Day 20 after cell inoculation and continued until end of study by twice daily oral gavage dosing of HC-7366 at listed doses (vehicle, 0.3 mg/kg HC-7366, 1 mg/kg HC-7366, 3 mg/kg HC-7366, 10 mg/kg HC-7366, or 30 mg/kg HC-7366, FIG. 17).
(§1) [formula] • 2.2.2 Tumor Measurements: The measurement of tumor size was conducted three times weekly with a caliper and recorded. The tumor volume (mm^3) was estimated using the formula: TV=a×b^2/2, where “a” and “b” is long and short diameters of a tumor, respectively. Tumor volume was calculated using the formula [tumor volume (mm^3)=π/6×length×width^2).
(§2) Regression was calculated using the formula=100×ΔT/T initial, if ΔT<0. Animals with 0 mm^3 tumor volume (no measurable tumor) for three consecutive measurements were considered as complete responders and animals with 50% tumor regressions were partial responders.

Series [4] has as its system HIF1α and HIF2a in FaDu tumors. Put plainly: Tumor IHC, FaDu tumors. It counts as in vivo, BALB/c nude mice. The settings on record: end of study. As to the method:
Immunohistochemical analysis was carried out on tumors that were collected at the end of the study described in Example 6. Formalin-fixed paraffin-embedded samples were sectioned at 5 μm thickness and mounted on Superfrost Plus microscope slides (Fisher Scientific). All immunohistochemical (IHC) staining was performed on Bond Rx auto-stainer (Leica Biosystems) using the conventional TSA-amplified detection system. Primary antibodies used were as follows: a-ASNS (Cell Signaling Technology #92479), a-PUMA (Cell Signaling Technology #98672), a-PSAT1 (Proteintech #10501-1-AP), a-PHGDH (Proteintech #14719-1-AP), HIF-1a-Novus Biologicals NB 100-479, HIF-2a-Novus Biologicals NB100-122SS, and GLUT-1-EMB Biosciences 07-1401. […]
Slides were imaged with Aperio Versa 200 (Leica Biosystems) whole-slide scanner using 10×/0.32NA objective, and the data were analyzed using custom-written macros in ImageJ/FIJI (NIH). Briefly, 150 μm of outer edges of the tumor sections and necrotic regions (determined by lack of 4′,6-diamidino-2-phenylindole (DAPI) signal or presence of condensed DNA) were eliminated from the analysis. […] Scans of immune-staining were processed to remove background, then total intensity value above appropriate threshold levels was measured and normalized to tissue area. […]

In series [5] the test system is NCI-H1975 (human non-small cell lung cancer cells). As to the kind of experiment: In vivo tumor growth inhibition, NCI-H1975 xenograft. Further details: species or system Athymic Nude-Foxn1nu mice. Conditions: HC-7366 3 mg/kg twice daily oral. As to the method:
NCI-H1975 (human non-small cell lung cancer cells): Female 7-8 weeks old Athymic Nude-Foxn1nu mice were inoculated subcutaneously on the right flank with NCI-H1975 tumor cells (2.5×10^6) in 0.1 ml of RPMI1640 medium without serum for tumor development. Single agent HC-7366 was dosed at 3 mg/kg, osimertinib at 2.5 mg/kg and dacomitinib at 15 mg/kg. HC-7366 was combined with either osimertinib or dacomitinib. The vehicle for the groups was 0.5% methyl cellulose. The treatments were started when the mean tumor size reached approximately 205 mm^3 at Day 22 post inoculation and continued until end of study. HC-7366 was given twice daily by oral gavage whereas osimertinib or dacomitinib were administered once a day by oral gavage (FIGS. 131 and 133).
as §1, §2

The test system of another series is ATF4, ASNS in FaDu cells. As to the kind of experiment: Jess protein analysis, FaDu cells. The settings on record: 0.01 and 0.1 μM, 72 hr, sgControl vs sgGCN2. It counts as cell-based, human. As to the method: Cell lysates were obtained from FaDu sgControl or sgGCN2 cells treated with HC-7366 (0, 0.01, 0.1 and 1 μM) for 72 hr. Ice cold 1x radioimmunoprecipitation assay (RIPA) lysis buffer supplemented with protease and phosphatase inhibitors was added to the cell pellets, on ice. After 30 min on ice the cell lysates were centrifuged at 4° C., 12,000 rpm for 15 minutes and the supernatant was collected. Protein concentration was determined using BCA kit. The cell lysates were mixed with 5×SDS loading buffer and denatured at 95° C. for 5 minutes. 1 μg lysate was run on Jess capillary and results were analyzed by compass simple western software. The following primary antibodies were used: p-GCN2 T899 (Abcam #ab75836), GCN2 (Cell Signaling #3302), ATF4 (Cell Signaling #11815) and ASNS (Proteintech #14681). Anti-rabbit secondary antibody was from ProteinSimple #042-206.

The TGI is how far tumour growth fell short of that in controls. Read a high TGI as a stronger effect on the tumour.

Turning to `CNC(=O)c1ncn2cc(-c3c(F)ccc(NS(=O)(=O)c4cc(Cl)cnc4OC)c3F)ncc12` [HC-7366, 6-(3-((5-chloro-2-methoxypyridine)-3-sulfonamido)-2,6-difluorophenyl)-N-methylimidazo[1,5-a]pyrazine-1-carboxamide], the “oxidative phosphorylation pathway, pathway analysis (IPA)” value in series [1] (3 mg/kg twice a day, four days) is “strong repression”. The “protein subunits of the electron transport chain” value in series [1] (3 mg/kg, relative to vehicle) was “decreased”. Moreover, in series [2], the body weight loss entry was “No treatment related body weight loss”. In addition, the “effect on tumor growth” value in series [3] is recorded as “tumor stasis”. Further, in series [4], the HIF1α protein levels entry is listed as “significantly reduced” and the HIF2a protein levels entry is “significantly reduced”. The same compound displayed an inhibition of tumour growth (TGI) in series [5] of 59%. For the same compound, the “levels of ATF4 and ASNS” value in the series with ATF4, ASNS in FaDu cells is “GCN2-dependent increase”.
